The structures appear in SMILES notation.

The test deals with Xanthine dehydrogenase/oxidase (Bos taurus, UniProt P80457). Kind of test: Inhibition of bovine xanthine oxidase assessed as reduction in uric acid formation using xanthine as substrate preincubated for 10 mins followed by substrate addition measured at first 2 mins by spectrophotometric analysis.
Sequence of Xanthine dehydrogenase/oxidase (P80457 whole entry): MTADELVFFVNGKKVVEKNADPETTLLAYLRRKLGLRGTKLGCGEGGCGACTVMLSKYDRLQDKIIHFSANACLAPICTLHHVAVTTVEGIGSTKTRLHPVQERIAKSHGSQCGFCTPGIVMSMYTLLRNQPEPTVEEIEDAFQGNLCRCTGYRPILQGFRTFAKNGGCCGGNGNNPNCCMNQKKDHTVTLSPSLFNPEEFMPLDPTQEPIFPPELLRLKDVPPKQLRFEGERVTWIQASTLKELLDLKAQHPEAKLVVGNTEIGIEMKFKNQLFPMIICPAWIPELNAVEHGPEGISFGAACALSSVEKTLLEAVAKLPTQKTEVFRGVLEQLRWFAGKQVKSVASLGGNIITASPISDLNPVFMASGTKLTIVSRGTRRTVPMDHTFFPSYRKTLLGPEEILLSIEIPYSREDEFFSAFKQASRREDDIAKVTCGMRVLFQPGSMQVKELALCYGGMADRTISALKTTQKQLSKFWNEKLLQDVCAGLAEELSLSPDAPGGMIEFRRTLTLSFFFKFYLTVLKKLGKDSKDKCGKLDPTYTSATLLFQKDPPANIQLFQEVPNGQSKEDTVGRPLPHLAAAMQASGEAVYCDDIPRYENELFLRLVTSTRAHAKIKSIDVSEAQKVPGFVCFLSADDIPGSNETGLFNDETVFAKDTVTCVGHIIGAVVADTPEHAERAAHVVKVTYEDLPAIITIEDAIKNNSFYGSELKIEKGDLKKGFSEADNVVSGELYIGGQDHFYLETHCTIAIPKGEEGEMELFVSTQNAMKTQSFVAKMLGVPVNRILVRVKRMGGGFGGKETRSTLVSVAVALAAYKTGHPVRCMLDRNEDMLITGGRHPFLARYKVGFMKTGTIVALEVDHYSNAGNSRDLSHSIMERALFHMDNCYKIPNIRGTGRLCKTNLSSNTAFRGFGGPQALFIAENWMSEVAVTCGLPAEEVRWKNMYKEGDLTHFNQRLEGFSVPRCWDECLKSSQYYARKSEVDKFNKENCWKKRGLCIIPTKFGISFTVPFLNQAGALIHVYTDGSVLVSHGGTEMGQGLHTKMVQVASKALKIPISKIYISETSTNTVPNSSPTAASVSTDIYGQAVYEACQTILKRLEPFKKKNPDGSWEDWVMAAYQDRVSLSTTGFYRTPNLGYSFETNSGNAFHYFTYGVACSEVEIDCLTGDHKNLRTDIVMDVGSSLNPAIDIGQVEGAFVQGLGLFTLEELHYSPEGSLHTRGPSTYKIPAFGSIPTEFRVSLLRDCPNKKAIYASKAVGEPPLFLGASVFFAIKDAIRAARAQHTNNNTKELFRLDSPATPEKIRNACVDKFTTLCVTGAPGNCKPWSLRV

As to `N#Cc1ccccc1COc1ccc(NC(=O)c2ccncc2)cc1C#N`, the 50% inhibitory concentration (IC50) came out at 0.312 µM. The result for `N#Cc1cc(-c2n[nH]c(-c3ccncc3)n2)ccn1` [TOPIROXOSTAT] reads 0.021 µM.

For orientation: IC50 means the concentration needed to halve the response being measured.

These data come from ChEMBL document CHEMBL4406855, “Design, synthesis and biological evaluation of N-(3-(1H-tetrazol-1-yl)phenyl)isonicotinamide derivatives as novel xanthine oxidase inhibitors” (Eur J Med Chem, 2019).
